Source: patent publication US7341859B2, “ADH from Rhodococcus erythropolis” (Degussa AG, priority 2002, dated 2008)
Like-named read-outs stand apart in the source and are kept apart here.

Columns and labels:
[1] = tested on: alcohol dehydrogenase from R. erythropolis; experiment: Preparative reduction of keto-compounds with ADH and formate dehydrogenase regeneration, chiral GC; assay type: biochemical, Rhodococcus erythropolis; conditions: for Conversion after 10 min [%]: 10 mM keto-compound, 0.5 U/ml alcohol dehydrogenase; for ee [%] of the product: enzymatic reduction, chiral GC
Procedure: The product is analysed by means of gas chromatography, wherein the stationary phase in the GC column is capable of separating enantiomeric alcohols so that information on the ee values of the enzymatically prepared product can be obtained.
Such a mixture for reduction contains: • 10 mM keto-compound • 0.5 mM NAD • 100 mM Na formate • 1 U/ml formate dehydrogenase
At the times 0, 5 min and 10 min, samples are taken (100 μl), extracted with 100 μl of chloroform and the chloroform phase is analysed using gas chromatography.
Column: CP-Chirasil-DEX CB length: 25 m, diameter: 25 μm (Chrompack). Temperature programme: 5 min at 60° C., then 5° C./min up to 190° C. (for hexanone/hexanol: 30 min at 60° C., then 10° C./min to 195° C.). Column flow 1.3 ml/min; gas:helium
p-Cl-acetophenone, acetophenone, ethyl 2-oxobutyrate, 2-hexanone and 2-heptanone.

ADH from R. erythropolis = experiment: Enantioselective oxidation of (R,S)-phenylethanol with ADH and NADH oxidase, chiral GC; assay type: biochemical, Rhodococcus erythropolis; conditions: after 2 h; for oxidation of the enantiomer: 10 mM (R,S)-phenylethanol
Procedure: By means of enantioselective oxidation of an alcohol, an enantiomer-enriched or enantiomer-pure alcohol, for example, can be obtained from a racemate.
Samples were taken after 0, 1 and 2 h and separated by gas chromatography (column: CP-Chirasil-DEX CB length: 25 m, diameter: 25 μm (Chrompack). Temperature programme: 5 min at 60° C., then 5° C./min up to 190° C.; column flow rate 1.3 ml/min; gas: helium. In this case, both the acetophenone peak (product; retention time=16.9 min), and also the enantiomers of phenylethanol (reactants; retention times R-phenylethanol=20.8 min and S-phenylethanol=21.1 min) were recorded.

[2] = tested on: alcohol dehydrogenase from R. erythropolis (RE-ADH, new ADH expr. in E. coli); experiment: Relative/specific activity of substrates with the new ADH from R. erythropolis (photometric NADH test); assay type: biochemical, Rhodococcus erythropolis; conditions: for Relative activity [%]: relative to acetophenone = 100
Procedure: In this case, as is normal, the measured activity for one compound is set at 100% and the activity/activities of the other compound(s) is determined in relation thereto. From the relative activities when compared with other substrates, it can then be recognised whether such another substrate is accepted to a greater or lesser extent.
A first purification can be achieved by anion exchange chromatography (MonoQ-Material, Pharmacia) (mobile buffer: 50 mM TEA buffer, pH 7.0; elution with a NaCl gradient of 0-1 M).
For the activity test, the cells were harvested (15 min centrifuging at 14000 rpm, 4° C.) and degraded after resuspension with 100 mM KPi buffer, pH 6.0 (1.5 ml of buffer per 1 g of cells). For the purposes of degradation, the suspension was treated with ultrasound (2×30 sec. power 100%, pulse 50), then the cell broth was centrifuged. The supernatant liquid is the soluble crude extract, the sediment is the insoluble fraction.
For a comparison using relative activities, the activity of the two enzymes was given with respect to phenylacetaldehyde=100%.
In this case, the relative activity is given with respect to the activity measured for acetophenone.

[3] = tested on: aldehyde reductase from Corynebacterium sp.; conditions: cited from earlier work; for relative activity: phenylacetaldehyde = 100%
[4] = tested on: ADH in accordance with J. Peters, Dissertation; conditions: cited from earlier work
[5] = tested on: whole cells of R. erythropolis; experiment: Continuous conversion with alginate-immobilised whole cells in a column; assay type: cell-based, Rhodococcus erythropolis; conditions: 1.5 mM, 2 ml per h
Procedure: Our results with whole cells of R. erythropolis indicate that this strain contains several ADHs, including at least one with opposite enantioselectivity. […] However, this high ee value is retained for only about 10 h (about 3 volume changes), then the ee value drops drastically while the conversion remains at the same high level.

[6] = tested on: ADH in accordance with DE 4209022; conditions: cited from earlier work
CC(=O)c1ccc(Cl)cc1 = experiment: purified protein, by the assay type; conditions: other: reduction reaction
C[C@H](O)c1ccc(Cl)cc1 = experiment: purified protein, by the assay type; conditions: other: oxidation reaction
[7] = substrate: NC(=O)c1ccc[n+]([C@@H]2O[C@H](COP(=O)([O-])OP(=O)(O)OC[C@H]3O[C@@H](n4cnc5c(N)ncnc54)[C@H](O)[C@@H]3O)[C@@H](O)[C@H]2O)c1; experiment: purified protein, by the assay type; conditions: other: oxidation reaction
[8] = relative to 2-heptanone = 100%, listed as 2-decanone
[9] = relative to 2-heptanone = 100%, listed as drawing 11
[10] = relative to methyl acetoacetate = 100%
[11] = relative to 2-heptanone = 100%, listed as 2-heptanone
[12] = relative to 2-heptanone = 100%, listed as drawing 10
[13] = relative to 2-heptanone = 100%, listed as drawing 12
[14] = relative to 2-heptanone = 100%, listed as phenoxyacetone
[15] = relative to methyl acetoacetate = 100%, listed as drawing 9
[16] = relative to methyl acetoacetate = 100%, listed as p-chloroacetophenone
[17] = relative to p-methylacetophenone = 100%, listed as drawing 3
[18] = relative to p-methylacetophenone = 100%, listed as p-chloroacetophenone
[19] = relative to p-fluoroacetophenone = 100%, listed as drawing 5
[20] = relative to p-fluoroacetophenone = 100%, listed as p-methoxyacetophenone
[21] = relative to p-methylacetophenone = 100%

CCCCC(C)=O [2-hexanone]
Conversion after 10 min [%] [1]: >95%
ee [%] of the product [1]: >99%

C[C@@H](O)c1ccccc1 [(R)-phenylethanol]
ee value of the remaining enantiomer (ADH from R. erythropolis): > 99%
oxidation of the enantiomer (ADH from R. erythropolis): remained untouched

C[C@H](O)c1ccccc1 [(S)-phenylethanol]
oxidation of the enantiomer (ADH from R. erythropolis): fully oxidised

CC(=O)c1ccccc1 [Acetophenone]
activity of Rhodococcus ADH compared with the Corynebacterium enzyme ([2]; highly purified enzymes, towards acetophenone): about 15 times
activity for acetophenone reduction ([2]; homogeneous enzyme): 348 U/mg
relative activity ([2]; phenylacetaldehyde = 100%): 87%
Relative activity [%] [2]: 100%
activity for acetophenone reduction ([3]; homogeneous enzyme): 22.4 U/mg
relative activity [3]: 35%
Conversion after 10 min [%] [1]: >95%
ee [%] of the product [1]: >99%

CCCCCCCCC(C)=O [Decan-2-one, 2-decanone]
relative activity [2, 8]: 76%
relative activity [2, 9]: 76%
Relative activity [%] [2]: 2521%
relative activity [4, 8]: 79%
relative activity [4, 9]: 79%

CCOC(=O)C(=O)CC [Ethyl 2-oxobutyrate, ethyl 2-oxobutyrate]
Conversion after 10 min [%] [1]: >95%
ee [%] of the product [1]: >99%

CCOC(=O)CC(C)=O [Ethyl acetoacetate]
Relative activity [%] [2]: 1020%
relative activity [2, 10]: 773%
relative activity ([2]; relative to methyl acetoacetate = 100%, listed as β-ketoethyl ester): 773%
relative activity [4, 10]: 250%
relative activity ([4]; relative to methyl acetoacetate = 100%, listed as β-ketoethyl esters): 250%

CCCCCC(C)=O [Heptan-2-one, 2-heptanone]
relative activity [2, 11]: 100%
relative activity [2, 12]: 100%
Relative activity [%] [2]: 3328%
relative activity [4, 11]: 100%
relative activity [4, 12]: 100%
Conversion after 10 min [%] [1]: >95%
ee [%] of the product [1]: >99%

COC(=O)CC(C)=O [Methyl acetoacetate, methyl acetoacetate]
Relative activity [%] [2]: 134%
relative activity [2, 10]: 100%
relative activity ([2]; relative to methyl acetoacetate = 100%, listed as methyl ester): 100%
relative activity [4, 10]: 100%

CC(=O)COc1ccccc1 [Phenoxyacetone, phenoxyacetone]
relative activity [2, 13]: 126%
relative activity [2, 14]: 126%
Relative activity [%] [2]: 4180%
relative activity [4, 13]: 71%
relative activity [4, 14]: 71%

O=CCc1ccccc1 [Phenylacetaldehyde]
relative activity ([2]; phenylacetaldehyde = 100%): 100%
relative activity [3]: 100%

CCCCC=O [Valeraldehyde]
relative activity ([2]; phenylacetaldehyde = 100%): 433%
relative activity [3]: 181%

CC(=O)c1cccc(Cl)c1 [m-Cl-acetophenone]
Relative activity [%] [2]: 2384%

CC(=O)c1ccc(Cl)cc1 [p-Cl-acetophenone, p-chloroacetophenone]
relative activity ([2]; phenylacetaldehyde = 100%): 288%
Relative activity [%] [2]: 1198%
relative activity [2, 15]: 909%
relative activity [2, 16]: 909%
relative activity [2, 17]: 189%
relative activity [2, 18]: 189%
ee of (S)-p-chloro-2-phenylethanol obtained ([5]; after 25 h (about 9 volume changes)): 70 % ee
ee of the alcohol obtained ([5]; after 50 h (about 18 volume changes)): about 5 % ee
relative activity [4, 15]: 100%
relative activity [4, 16]: 100%
relative activity [6, 17]: 81%
relative activity [6, 18]: 81%
relative activity [3]: 338%
Conversion after 10 min [%] [1]: >95%
enantiomeric form of the product of conversion by the new alcohol dehydrogenase ([1]; also when used several times or at higher concentrations): enantiomerically pure
ee [%] of the product [1]: >99%

CC(=O)c1ccc(F)cc1 [p-F-acetophenone, p-fluoroacetophenone]
Relative activity [%] [2]: 194%
relative activity ([2]; relative to p-fluoroacetophenone = 100%): 100%
relative activity ([6]; relative to p-fluoroacetophenone = 100%, listed as drawing 6): 100%
relative activity ([6]; relative to p-fluoroacetophenone = 100%, listed as p-fluoroacetophenone): 100%

COc1ccc(C(C)=O)cc1 [p-methoxy-acetophenone, p-methoxyacetophenone]
Relative activity [%] [2]: 232%
relative activity [2, 19]: 195%
relative activity [2, 20]: 195%
relative activity [6, 19]: 90%
relative activity [6, 20]: 90%

CC(=O)c1ccc(C)cc1 [p-methyl-acetophenone, p-methylacetophenone]
Relative activity [%] [2]: 640%
relative activity [2, 21]: 100%
relative activity [6, 21]: 100%

RE-ADH (Rhodococcus erythropolis)
Km (CC(=O)c1ccc(Cl)cc1): 500 µM
Km (C[C@H](O)c1ccc(Cl)cc1): 280 µM

B1: RE-ADH (Rhodococcus erythropolis) (protein)
chain: MKAIQYTRIGAEPELTEIPKPEPGPGEVLLEVTAAGVCHSDDFIMSLPEEQYTYGLPLTLGHEGAGKVAAVGEGVEGLDIGTNVVVYGPWGCGNCWHCSQGLENYCSRAQELGINPPGLGAPGALAEFMIVDSPRHLVPIGDLDPVKTVPLTDAGLTPYHAIKRSLPKLRGGSYAVVIGTGGLGHVAIQLLRHLSAATVIALDVSADKLELATKVGAHEVVLSDKDAAENVRKITGSQGAALVLDFVGYQPTIDTAMAVAGVGSDVTIVGIGDGQAHAKVGFFQSPYEASVTVPYWGARNELIELIDLAHAGIFDIAVETFSLDNGAEAYRRLAAGTLSGRAVVVPGL
Km [7]: 82 µM
